Source: ChEMBL document CHEMBL5634163, “Anti-Ferroptotic Effect of Cannabidiol in Human Skin Keratinocytes Characterized by Data-Independent Acquisition-Based Proteomics” (J Nat Prod, 2024)
Active and inactive are the calls of the source. The calls are words filed in the database; no cut-off is given here.

Experiments:
[1] = system: HaCaT; assay: Anti-ferroptotic effect against erastin-induced cytotoxicity in human HaCaT cells assessed as cell viability at 10 uM preincubated for 4 hrs followed by erastin addition measured after 24 hrs by MTT assay (reference value: 23 %); format: functional; settings: time 28 hrs, read-out: Activity
[2] = Iron-chelating activity of compound at 500 uM incubated for 10 mins by absorbance based assay relative to control; format: functional
[3] = Antioxidant activity assessed as free radical scavenging activity at 100 uM incubated for 30 mins in dark by DPPH assay relative to control; format: functional
[4] = system: HaCaT; assay: Anti-ferroptotic effect against erastin-induced cytotoxicity in human HaCaT cells assessed as cell viability at 10 uM preincubated for 4 hrs followed by erastin addition measured after 24 hrs by MTT assay relative to control; format: functional; settings: for Activity: time 28.0 hrs; for viability at 10 µM: time 28 hrs, read-out: Activity
[5] = Antioxidant activity assessed as free radical scavenging activity incubated for 30 mins in dark by DPPH assay; format: functional
[6] = system: HaCaT; assay: Anti-ferroptotic effect against erastin-induced cytotoxicity in human HaCaT cells assessed as cell viability at 0.31 uM preincubated for 4 hrs followed by erastin addition measured after 24 hrs by MTT assay (reference value: 23 %); format: functional; settings: time 28 hrs, read-out: Activity
[7] = system: HaCaT; assay: Reversal of erastin-reduced CSNK2B level in human HaCaT cells; format: functional, cell-based
[8] = system: HaCaT; assay: Reversal of erastin-induced lipid peroxidation in human HaCaT cells at 0.6 uM preincubated for 4 hrs followed by erastin addition measured after 24 hrs by flow cytometry (reference value: 47 %); format: functional; settings: time 28 hrs
[9] = system: HaCaT; assay: Suppression of erastin-induced intracellular Fe2+ level in human HaCaT cells at 2.5 uM preincubated for 24 hrs followed by erastin addition measured after 24 hrs by FerroOrange probe based assay (reference value: 25 %); format: functional; settings: time 48 hrs
[10] = system: HaCaT; assay: Anti-ferroptotic effect against erastin-induced cytotoxicity in human HaCaT cells assessed as cell viability at 5 uM preincubated for 4 hrs followed by erastin addition measured after 24 hrs by MTT assay (reference value: 23 %); format: functional; settings: time 28 hrs, read-out: Activity
[11] = system: HaCaT; assay: Reversal of erastin-induced lipid peroxidation in human HaCaT cells at 10 uM preincubated for 4 hrs followed by erastin addition measured after 24 hrs by flow cytometry (reference value: 47 %); format: functional; settings: time 28 hrs
[12] = system: HaCaT; assay: Reversal of erastin-induced LIG3 level in human HaCaT cells; format: functional, cell-based
[13] = system: HaCaT; assay: Anti-ferroptotic effect against erastin-induced cytotoxicity in human HaCaT cells assessed as cell viability at 2.5 uM preincubated for 4 hrs followed by erastin addition measured after 24 hrs by MTT assay (reference value: 23 %); format: functional; settings: time 28 hrs, read-out: Activity
[14] = system: HaCaT; assay: Anti-ferroptotic effect against erastin-induced cytotoxicity in human HaCaT cells assessed as cell viability at 0.63 uM preincubated for 4 hrs followed by erastin addition measured after 24 hrs by MTT assay (reference value: 23 %); format: functional; settings: time 28 hrs, read-out: Activity
[15] = system: HaCaT; assay: Reversal of erastin-reduced LGALS3 level in human HaCaT cells; format: functional, cell-based
[16] = system: HaCaT; assay: Reversal of erastin-induced FXR2 level in human HaCaT cells; format: functional, cell-based
[17] = system: HaCaT; assay: Anti-ferroptotic effect against erastin-induced cytotoxicity in human HaCaT cells assessed as cell viability at 1.25 uM preincubated for 4 hrs followed by erastin addition measured after 24 hrs by MTT assay (reference value: 23 %); format: functional; settings: time 28 hrs, read-out: Activity
[18] = system: HaCaT; assay: Reversal of erastin-induced ROS level in human HaCaT cells at 2.5 uM preincubated for 24.5 hrs followed by erastin addition measured after 4 hrs by DC-FDA probe based assay (reference value: 23 %); format: functional; settings: time 28.5 hrs
[19] = system: HaCaT; assay: Reversal of erastin-induced iron level in human HaCaT cells at 10 uM preincubated for 24 hrs followed by erastin addition measured after 24 hrs by FerroOrange probe based assay (reference value: 43 %); format: functional; settings: time 48 hrs
[20] = system: HaCaT; assay: Anti-ferroptotic effect against erastin-induced cytotoxicity in human HaCaT cells assessed as cell viability at 0.08 uM preincubated for 4 hrs followed by erastin addition measured after 24 hrs by MTT assay (reference value: 23 %); format: functional; settings: time 28 hrs, read-out: Activity
[21] = system: HaCaT; assay: Reversal of erastin-induced iron level in human HaCaT cells at 2.5 uM preincubated for 24 hrs followed by erastin addition measured after 24 hrs by FerroOrange probe based assay (reference value: 43 %); format: functional; settings: time 48 hrs
[22] = system: HaCaT; assay: Reversal of erastin-induced ROS level in human HaCaT cells at 10 uM preincubated for 24.5 hrs followed by erastin addition measured after 4 hrs by DC-FDA probe based assay (reference value: 23 %); format: functional; settings: time 28.5 hrs
[23] = system: HaCaT; assay: Reversal of erastin-reduced RPL7A level in human HaCaT cells; format: functional, cell-based
[24] = system: HaCaT; assay: Anti-ferroptotic effect against erastin-induced cytotoxicity in human HaCaT cells assessed as cell viability at 0.16 uM preincubated for 4 hrs followed by erastin addition measured after 24 hrs by MTT assay (reference value: 23 %); format: functional; settings: time 28 hrs, read-out: Activity
[25] = system: HaCaT; assay: Effect on GSH level in human HaCaT cells at 2.5 uM; format: functional, cell-based
[26] = system: HaCaT; assay: Suppression of erastin-induced intracellular Fe2+ level in human HaCaT cells at 0.6 uM preincubated for 24 hrs followed by erastin addition measured after 24 hrs by FerroOrange probe based assay (reference value: 25 %); format: functional; settings: time 48 hrs
[27] = system: HaCaT; assay: Reversal of erastin-induced DDX60 level in human HaCaT cells; format: functional, cell-based
[28] = system: HaCaT; assay: Reversal of erastin-induced lipid peroxidation in human HaCaT cells at 2.5 uM preincubated for 4 hrs followed by erastin addition measured after 24 hrs by flow cytometry (reference value: 47 %); format: functional; settings: time 28 hrs
[29] = system: HaCaT; assay: Reversal of erastin-induced ROS level in human HaCaT cells at 0.6 uM preincubated for 24.5 hrs followed by erastin addition measured after 4 hrs by DC-FDA probe based assay (reference value: 23 %); format: functional; settings: time 28.5 hrs
[30] = system: HaCaT; assay: Suppression of erastin-induced intracellular Fe2+ level in human HaCaT cells at 10 uM preincubated for 24 hrs followed by erastin addition measured after 24 hrs by FerroOrange probe based assay (reference value: 25 %); format: functional; settings: time 48 hrs

CCOC(=O)c1ccc(NC2CCCCC2)c(N)c1
viability at 10 µM [1]: 66%

CC1=C(/C=C/C(C)=C/C=C/C(C)=C/CO)C(C)(C)CCC1
Activity [2]: 87% | Activity [3]: 18% | Activity [4]: inactive

O=C1O[C@H]([C@@H](O)CO)C(O)=C1O [ASCORBIC ACID]
Activity [2]: < 5% | Activity [4]: inactive | IC50 [5]: 15.9 µM

C=C(C)[C@@H]1CCC(C)=C[C@H]1c1c(O)cc(CCCCC)cc1O [CANNABIDIOL]
viability at 0.31 µM [6]: 45% | Activity [7]: Active | Activity [8]: 39% | Activity [9]: 12% | viability at 5 µM [10]: 71% | Activity [11]: 40% | Activity [12]: Active | viability at 2.5 µM [13]: 74% | Activity [2]: < 5% | viability at 0.63 µM [14]: 52% | Activity [15]: Active | Activity [16]: Active | viability at 1.25 µM [17]: 67% | Activity [18]: 14% | viability at 10 µM [1]: 68% | Activity [19]: 17% | viability at 0.08 µM [20]: 29% | Activity [21]: 15% | Activity [22]: 26% | Activity [23]: Active | viability at 10 µM [4]: 76% | viability at 0.16 µM [24]: 36% | Activity [25]: inactive | Activity [26]: 10% | IC50 [5]: 33.3 µM | Activity [27]: Active | Activity [28]: 44% | Activity [29]: 10%

O=c1c(O)c(-c2ccc(O)c(O)c2)oc2cc(O)ccc12 [FISETIN]
Activity [30]: 32% | Activity [11]: 40% | Activity [2]: 60% | Activity [19]: 14% | Activity [22]: 11% | viability at 10 µM [4]: 37% | IC50 [5]: 10.1 µM
